Measured values taken from PubChem BioAssay (NCI).
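Exposure lasted 48 hours, with cells grown in 96-well plates and compounds tested at five concentrations. The concentration for full growth arrest is given as TGI.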

Legend:
Assay in all cases: DTP human tumour cell line panel, 48 h
[1] = tested on: PC-3 prostate
[2] = tested on: HS 578T breast
[3] = tested on: SF-539 CNS
[4] = tested on: A498 renal
[5] = tested on: UACC-62 melanoma
[6] = tested on: ACHN renal
[7] = tested on: KM12 colon
[8] = tested on: OVCAR-3 ovarian
[9] = tested on: SK-MEL-2 melanoma
[10] = tested on: COLO 205 colon

Structure (SMILES)	TGI [1] [µM]	TGI [2] [µM]	TGI [3] [µM]	TGI [4] [µM]	TGI [5] [µM]	TGI [6] [µM]	TGI [7] [µM]	TGI [8] [µM]	TGI [9] [µM]	TGI [10] [µM]
CCCCCC(=O)OC[n+]1cccc(-c2c(COC(=O)NC(C)C)c(COC(=O)NC(C)C)c3n2CCC3)c1	> 100	> 100	> 72.5	37.7	89.2	> 100	> 100	> 100	94.7	> 100
O=C(O)CCC(NC(=O)c1ccc(Nc2nc3ccc(C(F)(F)F)cc3nc2C(=O)O)cc1)C(=O)O (stereo not given)	> 100	> 100	> 100	> 100	> 100	> 100	> 100	> 100	> 100	> 100
CC(C)(C)n1c(=O)n2c(-c3ccccc3)c(-c3ccccc3)n2c1=O	> 100	> 100	> 100	> 100	> 100	> 100	> 100	> 100	85.3	> 100
CC1OC(OC2C(OC(=O)[C@]34CCC(C)(C)C[C@H]3C3=CC[C@@H]5[C@@]6(C)CC[C@H](OC7OC(CO)C(O)C(O)C7OC7OC(CO)C(O)C(O)C7O)C(C)(C)[C@@H]6CC[C@@]5(C)[C@]3(C)CC4)OCC(O)C2O)C(O)C(O)C1OC1OCC(O)C(O)C1O (stereo not given in full)	25.8	40.2	> 100	6.06	33.1	24.5	21.8	> 100	17.2	3.28
Cc1ccc2c(=O)cc(-c3cc(C)sc3C)[nH]c2n1	> 30.2	7.15	6.25	> 100	> 100	> 100	> 100	58.6	> 29.6	7.52
c1ccc(C(NC2=NCCO2)C2CC2)cc1 (stereo not given)	> 100	> 100	> 100	> 100	> 100	> 100	> 100	> 100	> 100	> 100
Cc1nc2ccc(N=Nc3c(C)noc3C)cc2[nH]1	> 100	58.4	70.7	34.8	75.9	86.2	> 100	84.2	> 100	34.5
Nc1ccc2c(=S)c3ccccc3[nH]c2c1	> 100	> 100	> 100	> 100	> 100	> 100	> 100	> 100	> 100	> 100
CC(=O)Oc1ccc(-c2nnc(-c3ccc(OC(C)=O)cc3)nn2)cc1	> 100	> 100	> 100	> 100	> 100	> 100	> 100	> 100	> 100	> 100
CC(C)=CCC[C@@H](C)C1=C(N)C(O)=C(C)C(=O)C1=O	> 75	> 75	> 75	> 75	> 75	> 53.4	> 75	> 75	> 75	> 67.9
Cc1nc2ccccc2n1Cc1nnc(-c2ccccc2)o1	> 100	> 100	> 100	> 100	> 100	> 100	> 100	> 100	> 100	> 100
Cc1cccc(C)c1NC(=O)C(=O)CC(=O)c1sc(Nc2c(C)cccc2C)nc1C	> 100	> 100	> 100	> 100	> 100	> 100	> 100	> 100	> 100	> 100
CCCCCCCCCCCCCCCCOP(=O)([O-])OCC[N+](C)(C)C1CC(C)(C)N(O)C(C)(C)C1	> 100	> 100	> 100	> 100	> 100	> 100	> 100	> 100	> 100	> 100
NC(CCC(=O)O)C(=O)NC(Cc1ccc(N(CCCl)CCCl)cc1)C(=O)O (stereo not given)	> 100	> 100	> 100	> 100	> 100	> 100	> 100	> 100	> 100	> 100
COC(=O)c1ccc(CCC2=CC(=O)C=CC2=O)cc1	27.7	75.2	25.6	32.9	29.3	20.4	27	23.2	30.4	26.6
Nc1nccc(NCC2(CO)CC(CCc3ccccc3)C2)n1 (stereo not given)	31.9	52.9	32.1	29.3	28.5	32.6	41.7	38.9	32.8	29.5
CC(C)(C)OC(=O)/N=C/c1c(O)c2ccccc2oc1=O	> 100	65.9	> 100	78.5	> 100	> 100	> 100	> 100	45.2	> 100

Structure (SMILES)	TGI [1] [µM]	TGI [2] [µM]	TGI [3] [µM]	TGI [4] [µM]	TGI [5] [µM]	TGI [6] [µM]	TGI [7] [µM]	TGI [8] [µM]	TGI [9] [µM]	TGI [10] [µM]
COc1ccc(OC/C(N)=N/NC(=O)c2ccncc2)cc1	> 100	> 100	> 100	> 100	> 100	> 100	> 100	> 100	> 100	> 100
NCCc1ccc(S(=O)(=O)O)cc1[N+](=O)[O-]	> 100	> 100	> 100	> 100	> 100	> 100	> 100	> 100	> 100	> 100
COc1ccc(/C=C2\C[C@H]3[C@@H]4CC=C5C[C@@H](O)CC[C@]5(C)[C@H]4CC[C@]3(C)\C2=N\O)cc1	> 100	37.5	> 100	71.7	50.3	> 100	> 100	29.7	39.8	29
COC(=O)c1sc(=S)sc1SCc1cccc(CSc2sc(=S)sc2C(=O)OC)c1	> 100	> 100	62.6	62.2	> 100	> 100	> 100	> 100	> 100	> 100
CC1C(OS(=O)(=O)c2ccc3[nH]c(=S)sc3c2)CC2C3(C)CCC2(C(C)C(=O)O)C(O)C13 (stereo not given)	> 100	> 100	46	> 100	63.3	31.8	52.4	42.5	81.7	38
N/C(=N\N=C\c1nc2ccccc2o1)c1cnccn1	> 100	> 100	> 100	> 100	> 100	> 100	> 100	> 100	> 100	> 100
CCc1nc(N)nc(N)c1-c1ccc(N2CCOCC2)c(N=[N+]=[N-])c1	> 100	> 100	> 100	> 100	> 100	> 100	> 100	> 100	> 100	> 100
CCCCCCC1OC23OC1CCC2C(O)CCC3O (stereo not given)	> 100	> 100	> 100	> 100	> 100	> 100	> 100	> 100	> 100	> 100
O=C(Nc1ccc(Cl)cc1Cl)C1C(=O)OC2(CCCCC2)OC1=O	17.4	64.9	23.6	31.5	24.4	33.9	28.4	16.1	12.6	26.7
NS(=O)(=O)c1c(O)c2ccccc2oc1=O	> 100	> 100	> 100	> 100	> 100	> 100	> 100	> 100	> 100	> 100
O=c1oc2ccccc2c(-c2ccc(O)cc2)c1Oc1ccccc1	> 96.1	18.2	> 75.5	23.5	18.6	> 100	> 68.5	> 63.3	18.5	> 69.6
O=C(/C=C/c1ccccc1)CCN1CCCCC1	> 100	> 100	37.7	> 100	> 100	> 100	> 100	> 100	> 100	38.4
C(=NC12CC3CC(CC(C3)C1)C2)C1CCCCC1	> 100	> 100	> 100	> 100	> 100	> 100	> 100	> 100	> 100	> 100
CCCN1C(=O)CN(S(=O)(=O)c2ccc(Cl)cc2)C1=O	> 100	> 100	> 100	> 100	> 100	> 100	> 100	> 100	> 100	> 100
O[C@@H]1[C@H](OC2c3ccccc3-c3ccccc32)[C@H](OCc2ccccc2)[C@@H]2OC[C@H]1O2	> 100	> 100	81.7	> 100	> 100	> 100	> 100	> 100	> 100	> 100
COc1cc(Nc2cc(Cl)cc(Cl)c2)nc(N)n1	59.6	57	33	39.9	33.4	37.4	37	41.1	32.1	44.2
CCOc1ccc(NC(=O)C(=O)C(/C(=N/N)C(=O)OC)c2nc3ccc([N+](=O)[O-])cc3[nH]c2=O)cc1 (stereo not given)	> 100	> 100	> 100	> 100	> 100	> 100	> 100	> 100	> 100	> 100
